From the NIST ThermoML archive (doi:10.1021/je049762q)

Assay: molar heat capacity at constant pressure
Settings: 101.33 kPa

Brc1ccc(Br)cc1 [1,4-dibromobenzene]
molar heat capacity at constant pressure [J/K/mol]
Settings | Crystal | Liquid
5.27 K | 1.01 | –
5.8 K | 1.18 | –
6.45 K | 1.36 | –
6.5 K | 1.38 | –
7.46 K | 2.31 | –
7.64 K | 2.66 | –
7.71 K | 2.81 | –
8.52 K | 3.67 | –
8.77 K | 3.87 | –
9.03 K | 4.08 | –
9.52 K | 4.41 | –
10 K | 5.01 | –
10.07 K | 5.11 | –
10.26 K | 5.43 | –
10.6 K | 5.83 | –
11.8 K | 6.63 | –
12.15 K | 7.18 | –
12.41 K | 7.69 | –
12.47 K | 7.8 | –
13.6 K | 9.64 | –
14.05 K | 10.68 | –
14.2 K | 10.78 | –
15 K | 12.33 | –
15.55 K | 13.29 | –
15.57 K | 13.3 | –
15.9 K | 13.84 | –
16.68 K | 14.94 | –
17.46 K | 16.03 | –
17.68 K | 16.47 | –
17.94 K | 16.83 | –
18.59 K | 17.79 | –
19.73 K | 19.51 | –
20 K | 19.9 | –
20.25 K | 20.25 | –
22.16 K | 22.72 | –
22.64 K | 23.37 | –
23.84 K | 25.08 | –
24.7 K | 25.82 | –
25 K | 26.17 | –
26.55 K | 28 | –
27.15 K | 28.54 | –
28.82 K | 30.45 | –
29.32 K | 30.8 | –
30 K | 31.55 | –
31.01 K | 32.68 | –
31.27 K | 32.7 | –
33.06 K | 34.41 | –
33.29 K | 34.82 | –
35.63 K | 36.98 | –
38.01 K | 38.95 | –
40 K | 40.38 | –
40.43 K | 40.7 | –
42.9 K | 42.52 | –
45.4 K | 44.29 | –
47.94 K | 45.99 | –
50 K | 47.3 | –
50.51 K | 47.61 | –
53.12 K | 49.13 | –
55.75 K | 50.72 | –
58.41 K | 52.22 | –
60 K | 53.1 | –
61.09 K | 53.7 | –
63.8 K | 55.15 | –
66.54 K | 56.56 | –
69.3 K | 57.98 | –
70 K | 58.33 | –
72.07 K | 59.33 | –
74.86 K | 60.72 | –
77.68 K | 62.03 | –
80 K | 63.11 | –
80.51 K | 63.35 | –
83.36 K | 64.67 | –
86.22 K | 65.91 | –
89.08 K | 67.21 | –
89.28 K | 67.47 | –
90 K | 67.83 | –
91.9 K | 68.39 | –
92.15 K | 68.67 | –
94.65 K | 69.5 | –
95.04 K | 69.84 | –
97.35 K | 70.59 | –
97.94 K | 71.11 | –
100 K | 71.7 | –
100.85 K | 72.3 | –
102.59 K | 72.97 | –
103.77 K | 73.61 | –
105.15 K | 73.98 | –
106.7 K | 74.69 | –
109.64 K | 75.86 | –
110 K | 76 | –
112.58 K | 77.06 | –
115.54 K | 78.22 | –
118.5 K | 79.39 | –
120 K | 79.98 | –
121.46 K | 80.54 | –
124.44 K | 81.71 | –
127.42 K | 82.85 | –
130 K | 83.85 | –
130.4 K | 84.01 | –
133.39 K | 85.14 | –
136.39 K | 86.25 | –
139.39 K | 87.37 | –
140 K | 87.59 | –
142.39 K | 88.47 | –
145.4 K | 89.57 | –
148.41 K | 90.66 | –
150 K | 91.25 | –
151.43 K | 91.77 | –
154.45 K | 92.84 | –
157.47 K | 93.92 | –
160 K | 94.86 | –
160.49 K | 95.04 | –
163.52 K | 96.13 | –
166.54 K | 97.21 | –
169.55 K | 98.29 | –
170 K | 98.46 | –
172.58 K | 99.4 | –
175.6 K | 100.5 | –
178.62 K | 101.59 | –
180 K | 102.09 | –
181.65 K | 102.69 | –
184.69 K | 103.79 | –
187.72 K | 104.9 | –
190 K | 105.74 | –
190.75 K | 106.01 | –
193.79 K | 107.09 | –
196.83 K | 108.2 | –
199.86 K | 109.24 | –
200 K | 109.29 | –
202.9 K | 110.27 | –
205.94 K | 111.41 | –
208.97 K | 112.54 | –
210 K | 112.91 | –
212.01 K | 113.63 | –
215.05 K | 114.77 | –
218.09 K | 115.88 | –
220 K | 116.57 | –
221.12 K | 116.98 | –
224.16 K | 118.12 | –
227.19 K | 119.19 | –
230 K | 120.22 | –
230.23 K | 120.31 | –
233.27 K | 121.42 | –
236.31 K | 122.55 | –
239.34 K | 123.69 | –
240 K | 123.94 | –
242.38 K | 124.8 | –
245.41 K | 125.94 | –
248.44 K | 127.13 | –
250 K | 127.69 | –
251.48 K | 128.22 | –
254.52 K | 129.34 | –
257.56 K | 130.47 | –
260 K | 131.36 | –
260.6 K | 131.58 | –
263.64 K | 132.68 | –
266.67 K | 133.83 | –
269.71 K | 134.94 | –
270 K | 135.04 | –
272.74 K | 136.06 | –
275.78 K | 137.2 | –
278.81 K | 138.23 | –
280 K | 138.63 | –
281.84 K | 139.24 | –
284.87 K | 140.31 | –
287.9 K | 141.45 | –
290 K | 142.24 | –
290.93 K | 143.08 | –
292.89 K | 143.33 | –
293.96 K | 143.64 | –
295.8 K | 144.5 | –
296.99 K | 144.79 | –
298.15 K | 145.34 | –
298.79 K | 145.71 | –
300 K | 145.97 | –
300.02 K | 145.98 | –
301.84 K | 146.94 | –
303.03 K | 147.07 | –
304.88 K | 148.06 | –
306.05 K | 148.21 | –
307.92 K | 149.18 | –
309.07 K | 149.34 | –
310 K | 149.79 | –
310.96 K | 150.23 | –
312.09 K | 150.47 | –
314 K | 151.06 | –
317.04 K | 152.02 | –
320 K | 153.12 | –
320.07 K | 153.14 | –
323.1 K | 154.4 | –
326.13 K | 155.58 | –
329.16 K | 156.76 | –
330 K | 157.09 | –
332.19 K | 157.97 | –
335.22 K | 159.26 | –
338.24 K | 160.5 | –
340 K | 161.27 | –
341.26 K | 161.81 | –
344.28 K | 163.16 | –
347.3 K | 164.65 | –
350 K | 166.05 | –
350.32 K | 166.28 | –
360 K | 171.43 | –
360.48 K | 171.7 | 190.38
362.85 K | – | 190.92
363.89 K | – | 191.22
365.71 K | – | 191.62
366.91 K | – | 191.91
368.72 K | – | 192.27
369.93 K | – | 192.55
370 K | – | 192.57
371.72 K | – | 192.9
372.94 K | – | 193.22
374.79 K | – | 193.57
377.7 K | – | 194.15
380 K | – | 194.61
380.68 K | – | 194.75
